Legend:
[1] = test system: JCP239 NARP (T8993G) cybrid cell line; assay: NARP cybrid growth in glucose-deprived medium; format: cell-based, human; conditions: FIG. 3, low concentrations (from 1 nM), 5 days
Procedure: FIG. 3: Effect of DSF on NARP cybrid cell lines (JCP239 NARP (T8993G)) grown in glucose deprived medium. DHLA (dihydrolipoic acid) was used as a positive control, as in previous studies (Couplan E et al. & Aiyar R S et al.). Various concentrations of DSF were tested as indicated. After 5 days of treatment by DSF, or DMSO (negative control), or DHLA (positive control), followed by a trypsin treatment, the number of living cells was determined using a Scepter Counter (Millipore). All cell counts were expressed relative to DMSO values set at 100%. This experiment has been repeated two times in triplicates and error bars represent the standard deviation. For each condition, the mean values of the resulting six points is indicated and compared to the negative control (DMSO-treated cells) using the Student's t-test (*P=0.0153; **P=0.0025; ***P<0.0001). […]

[2] = test system: mitochondrial complex I respiration in MELAS neuronal cybrid cells; assay: Complex I linked respiration in permeabilized MELAS cybrid cells (Oroboros oxygraph); format: cell-based, human; conditions: 48 h exposure, low glucose medium (0.5 g/l)
Procedure: FIG. 6: Effect of DSF on mitochondrial complex I respiration in MELAS neuronal cybrid cells after 48 h exposure in low glucose medium (0.5 g/l).
FIG. 7: Effect of DSF at 10 nM after 48 h exposure on mitochondrial complex I (left) and complex IV (right) respiration in permeabilized MELAS neuronal cybrid cells, in low glucose medium (0.5 g/l).
Cellular oxygen consumption was measured at 37° C. in MELAS cybrid cells treated vs untreated mutant cells on a high-resolution oxygraph (Oroboros), as described elsewhere (Desquiret-Dumas et al., 2012).
Briefly treated and untreated mutant cells were trypsinized and the pellet was resuspended in the respiratory buffer (KH2PO4 10 mM, mannitol 300 mM, KCl 10 mM, MgCl2 5 mM, pH 7.4) containing 15 μg/million cells of digitonin. Cells were incubated at room temperature during 2.5 minutes and the digitonin action was stopped by adding five volumes of the respiration buffer supplemented with 1 mg/ml of BSA. […] The oxygen consumption was measured in state II (5 mM malate+pyruvate), state III (5 mM malate+pyruvate+1.5 mM ADP+0.5 mM NAD or 5 mM succinate+10 μM rotenone+1.5 mM ADP+0.5 mM NAD), state IV (8 μg/ml oligomycin) and maximal cytochrome c oxidase capacity (4 mM ascorbate+0.2 mM TMPD). After oxygraphic measurement, […] of cell suspension was removed from the chamber and the protein concentration was measured using bicinchoninic acid.

CCN(CC)C(=S)SSC(=S)N(CC)CC [DSF, 1-(diethylthiocarbamoyldisulfanyl)-N,N-diethyl-methanethioamide]
effect on growth of NARP cybrids [1]: significant positive effect
effect on complex I linked respiration ([2]; FIG. 6, various concentrations): increases complex I linked respiration
effect on complex I linked respiration ([2]; FIG. 7, 10 nM, permeabilized cells): increases mitochondrial complex I
